Legend:
Experiment in all cases: relative viability (nuclei count vs DMSO), 5 days (fraction); higher = more cells survive
Ibrutinib + Pictilisib = compound: C=CC(=O)N1CCC[C@@H](n2nc(-c3ccc(Oc4ccccc4)cc3)c3c(N)ncnc32)C1 [Ibrutinib] + CS(=O)(=O)N1CCN(Cc2cc3nc(-c4cccc5[nH]ncc45)nc(N4CCOCC4)c3s2)CC1 [Pictilisib] (partner 1 µM)
How it was run: (§1)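 Dosing by pin tool came one day after lung cancer cell lines were seeded in 1536-well plates, using either one drug or a fixed anchor-drug dose plus five library-drug doses (not always all listed) in √10 steps. After 5 days, nuclei were counted on 4× images. Relative viability is treated-well nuclei count divided by vehicle-well nuclei count, and values are medians of duplicate plates.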

BMX-IN-1 + OSI-027 = compound: C=CC(=O)Nc1cc(-n2c(=O)ccc3cnc4ccc(-c5ccc(NS(C)(=O)=O)cc5)cc4c32)ccc1C [BMX-IN-1] + COc1cccc2cc(-c3nc([C@H]4CC[C@H](C(=O)O)CC4)n4ncnc(N)c34)[nH]c12 [OSI-027] (partner 0.5 µM)
How it was run: as §1

BMX-IN-1 + Alpelisib = compound: C=CC(=O)Nc1cc(-n2c(=O)ccc3cnc4ccc(-c5ccc(NS(C)(=O)=O)cc5)cc4c32)ccc1C [BMX-IN-1] + Cc1nc(NC(=O)N2CCC[C@H]2C(N)=O)sc1-c1ccnc(C(C)(C)C(F)(F)F)c1 [Alpelisib] (partner 2 µM)
How it was run: as §1

PAC-1 + Palbociclib = compound: C=CCc1cccc(/C=N/NC(=O)CN2CCN(Cc3ccccc3)CC2)c1O [PAC-1] + CC(=O)c1c(C)c2cnc(Nc3ccc(N4CCNCC4)cn3)nc2n(C2CCCC2)c1=O [Palbociclib] (partner 0.5 µM)
How it was run: as §1

Row | Cell Line | relative viability (Ibrutinib + Pictilisib; first compound 0.005 µM) | relative viability (Ibrutinib + Pictilisib; first compound 0.01581 µM) | relative viability (Ibrutinib + Pictilisib; first compound 0.05 µM) | relative viability (Ibrutinib + Pictilisib; first compound 0.1581 µM) | relative viability (Ibrutinib + Pictilisib; first compound 0.5 µM) | relative viability (BMX-IN-1 + OSI-027; first compound 0.02 µM) | relative viability (BMX-IN-1 + OSI-027; first compound 0.2 µM) | relative viability (BMX-IN-1 + OSI-027; first compound 0.6325 µM) | relative viability (BMX-IN-1 + OSI-027; first compound 2 µM) | relative viability (BMX-IN-1 + Alpelisib; first compound 0.02 µM) | relative viability (BMX-IN-1 + Alpelisib; first compound 0.2 µM) | relative viability (BMX-IN-1 + Alpelisib; first compound 0.6325 µM) | relative viability (BMX-IN-1 + Alpelisib; first compound 2 µM) | relative viability (PAC-1 + Palbociclib; first compound 0.02 µM) | relative viability (PAC-1 + Palbociclib; first compound 0.06325 µM) | relative viability (PAC-1 + Palbociclib; first compound 0.2 µM) | relative viability (PAC-1 + Palbociclib; first compound 2 µM)
1 | EKVX | 0.341 | 0.391 | 0.435 | 0.461 | 0.278 | 0.848 | 0.689 | 0.783 | 0.663 | 0.942 | 0.965 | 0.951 | 0.828 | 0.389 | 0.385 | 0.308 | 0.388
2 | EMC-BAC-2 | 0.43 | 0.521 | 0.604 | 0.525 | 0.522 | 0.363 | 0.363 | 0.421 | 0.403 | 0.891 | 0.873 | 0.783 | 0.625 | 0.55 | 0.524 | 0.519 | 0.519
3 | EPLC-272H | – | 0.291 | 0.299 | 0.194 | 0.267 | 0.262 | 0.261 | 0.323 | 0.314 | 0.973 | 1.15 | 1.08 | 0.94 | 0.279 | 0.28 | 0.293 | 0.268
4 | H3255 | 0.389 | 0.397 | 0.263 | 0.415 | 0.14 | 0.635 | 0.658 | 0.578 | 0.518 | 0.798 | 0.657 | 0.815 | 0.712 | 0.359 | 0.298 | 0.299 | 0.291
5 | HARA | 0.185 | 0.515 | 0.383 | 0.412 | 0.232 | 0.403 | 0.544 | 0.562 | 0.457 | 1.04 | 0.883 | 0.787 | 0.846 | 0.228 | 0.225 | 0.247 | 0.329
6 | HCC-15 | 0.646 | 0.678 | 0.731 | 0.361 | 0.711 | 0.801 | 0.708 | 0.698 | 0.583 | 1.08 | 1.02 | 0.924 | 0.882 | 0.743 | 0.747 | 0.628 | 0.689
7 | HCC-44 | 0.593 | 0.467 | 0.527 | 0.599 | 0.694 | 0.617 | 0.515 | 0.56 | 0.474 | 0.869 | 0.905 | 1.01 | 0.794 | 1.04 | 0.984 | 0.965 | 0.993
8 | HCC-78 | 0.199 | 0.202 | 0.177 | 0.159 | 0.172 | 0.336 | 0.372 | 0.371 | 0.376 | 0.355 | 0.319 | 0.391 | 0.175 | 0.477 | 0.454 | 0.505 | 0.465
9 | HCC-366 | – | 0.125 | 0.141 | 0.124 | 0.14 | 1.06 | 1.14 | 1.13 | 1.12 | 0.704 | 0.575 | 0.412 | 0.354 | 0.364 | 0.377 | 0.365 | 0.404
